The source made the active and inactive calls.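 How the source made its calls: active means inhibitor whose half-maximal potency stays within twice the top tested dose in every replicate test; inconclusive means mixed calls across tests, weak flat response, or poor curve fit; inactive means all tests inactive, including rising signal.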
Target: Endoplasmic reticulum aminopeptidase 1 (Homo sapiens) (UniProt Q9NZ08)
Test: ERAP1 aminopeptidase inhibitors, dose response, biochemical, fluorescence, dry powder, set 2 (AID 1117287)
Settings: ERAP1, Leu-AMC fluorescence, 60 min

Sequence of Endoplasmic reticulum aminopeptidase 1 (Homo sapiens) (Q9NZ08 whole entry, looked up): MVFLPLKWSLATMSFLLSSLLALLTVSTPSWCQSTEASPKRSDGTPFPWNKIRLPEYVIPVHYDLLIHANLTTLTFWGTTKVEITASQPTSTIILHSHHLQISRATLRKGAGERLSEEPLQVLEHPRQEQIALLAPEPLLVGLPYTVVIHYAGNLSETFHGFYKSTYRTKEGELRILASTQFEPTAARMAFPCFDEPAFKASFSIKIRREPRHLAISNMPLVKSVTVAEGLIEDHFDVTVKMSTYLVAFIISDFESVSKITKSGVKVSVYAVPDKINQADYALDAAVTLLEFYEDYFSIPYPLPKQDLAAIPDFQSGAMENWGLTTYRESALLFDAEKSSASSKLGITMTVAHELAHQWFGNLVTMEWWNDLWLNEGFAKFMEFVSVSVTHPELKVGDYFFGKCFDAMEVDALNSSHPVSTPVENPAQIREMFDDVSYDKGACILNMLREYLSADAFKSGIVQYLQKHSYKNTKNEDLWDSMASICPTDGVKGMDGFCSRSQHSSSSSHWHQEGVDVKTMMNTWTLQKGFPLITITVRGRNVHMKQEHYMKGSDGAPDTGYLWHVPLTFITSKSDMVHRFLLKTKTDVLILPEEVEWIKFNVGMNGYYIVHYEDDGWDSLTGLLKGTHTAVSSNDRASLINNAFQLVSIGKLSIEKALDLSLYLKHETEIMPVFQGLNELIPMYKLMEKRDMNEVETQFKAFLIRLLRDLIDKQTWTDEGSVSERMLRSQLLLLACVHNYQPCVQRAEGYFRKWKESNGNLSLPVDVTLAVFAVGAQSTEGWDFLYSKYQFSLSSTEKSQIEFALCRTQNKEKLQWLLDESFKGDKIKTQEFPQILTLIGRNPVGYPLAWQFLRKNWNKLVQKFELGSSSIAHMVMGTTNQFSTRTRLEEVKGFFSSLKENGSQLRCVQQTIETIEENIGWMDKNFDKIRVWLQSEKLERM

| activity change, negative = inhibition (at 50 µM (top of the series)) | SMILES | other results |
| --- | --- | --- |
| inactive | COc1ccc(C(=O)O)cc1S(=O)(=O)Nc1cc(C(F)(F)F)ccc1N(C)C | – |
| inactive | COc1ccc(C(=O)O)cc1S(=O)(=O)Nc1cc(C(F)(F)F)ccc1N1CCCCC1 | – |
| inactive | COc1ccc(C(=O)O)cc1S(=O)(=O)Nc1cc(C(F)(F)F)ccc1N1CCOCC1 | – |
| inactive | Cc1ccc(C(=O)O)cc1S(=O)(=O)Nc1cc(C(F)(F)F)ccc1N1CCCCC1 | – |
| inactive | COc1ccc(C(=O)O)cc1S(=O)(=O)Nc1cc(C(F)(F)F)ccc1N1CCN(C(C)=O)CC1 | – |

Further lines, the molecule ahead of its results:

| SMILES | activity change, negative = inhibition (at 50 µM (top of the series)) | other results |
| --- | --- | --- |
| COc1ccc(C2=NN(c3ccc(C(=O)O)cc3)C(c3ccc(OC)c(OC)c3)C2)cc1 (stereo not drawn) | – | activity change, negative = inhibition (at 26 µM (top of the series), above what the read-out allows, likely interference): inactive |
| Cc1ccc(S(=O)(=O)Nc2cc(C(F)(F)F)ccc2N2CCCCC2)cc1C(=O)O | inactive | – |
| COc1ccc(C(=O)O)cc1S(=O)(=O)Nc1cccc(N2CCCCC2)c1C(F)(F)F | – | AC50: > 100 µM (inactive) |
| COc1ccc(C(=O)Nc2cccc(C(F)(F)F)c2)cc1S(=O)(=O)O | inactive | – |
| O=C(O)c1cc(F)cc(S(=O)(=O)Nc2cc(C(F)(F)F)ccc2N2CCCCC2)c1 | inactive | – |
| O=S(=O)(O)c1ccc(N2N=C(c3ccccc3)CC2c2ccccc2)cc1 (stereo not drawn) | – | activity change, negative = inhibition (at 26 µM (top of the series)): inactive |
| COc1ccc(C(=O)O)cc1S(=O)(=O)N1CCN(c2ccc(C(F)(F)F)cc2N)CC1 | – | AC50: > 100 µM (inactive) |
| COc1ccc(C(=O)O)cc1S(=O)(=O)Nc1ccc(N2CCCCC2)cc1C(F)(F)F | – | AC50: > 100 µM (inactive) |

Reference: PubChem BioAssay AID1117287 (Broad Institute, 2014)
